≈ marks a conversion by molar mass, not a printed value. Where two headings read alike, the source gives them in different places.
Legend:
[1] = test system: FeEnt utilization by A. baumannii; assay: FeEnt siderophore nutrition test in A. baumannii; format: cell-based, Acinetobacter baumannii
[2] = test system: Fc utilization by E. coli OKN3 + pITS23 (transported by FhuA); assay: Siderophore nutrition test, Fc; format: cell-based, Escherichia coli
A. baumannii 17978 = assay: Minimal inhibitory concentration assay in LB, A. baumannii; format: cell-based, Acinetobacter baumannii
[3] = test system: FeEnt utilization by E. coli OKN3 + pITS23 (FepA); assay: Siderophore nutrition test, FeEnt; format: cell-based, Escherichia coli; conditions: for growth halo phenotype in siderophore nutrition test, in words: 100 μM compound (FIG. 6A)
[4] = test system: killing of E. coli MG1655 by colicin B (FepA, TonB-dependent); format: cell-based, Escherichia coli
E. coli MG1655 = assay: Minimal inhibitory concentration assay in LB; format: cell-based, Escherichia coli; conditions: two-fold dilutions up to […]
TonB = format: cell-based, Escherichia coli
[5] = test system: TonB-dependent FeEnt uptake through FepA (E. coli OKN3/pITS23FepAS271C-FM); assay: microbe, parasite or virus in culture; format: cell-based, Escherichia coli; conditions: for IC50: read-out: 50% Inhibition, Concentration (IC50)
[6] = test system: TonB-dependent FeEnt uptake through FepAS271C-FM; format: cell-based, Escherichia coli
[7] = A. baumannii, 50 μM FeEnt, 100 μM compound in DMSO, untreated 1.16 ± 0.065
[8] = E. coli OKN3 + pITS23, 50 μM Fc, 100 μM compound in DMSO, untreated 1.54 ± 0.105
[9] = E. coli OKN3 + pITS23, 50 μM FeEnt, 100 μM compound in DMSO, untreated 1.45 ± 0.123
[10] = percent killing of MG1655 by ColB in the presence of sub-toxic concentration of compound in DMSO, untreated 98.34 ± 2.38
[11] = Acinetobacter baumannii, 17978, read-out: MIC
[12] = Escherichia coli, MG1655, E. coli MG1655 in LB, dash = MIC >[…], read-out: MIC
[13] = Escherichia coli, […], cells pre-incubated 30 minutes at 37° C. with inhibitor
[14] = […], cells pre-incubated 30 minutes at 37° C. with inhibitor
[15] = halo increase >5% or no halo, killing prevented by >5%

| Compound | FeEnt Halo [1, 7] | Fc Halo [2, 8] | FeEnt Halo [3, 9] | % Colicin B killing [4, 10] | MIC (A. baumannii 17978; [11]) | MIC (E. coli MG1655; [12]) | further results |
| --- | --- | --- | --- | --- | --- | --- | --- |
| N.N.O=C([O-])C1(C(=O)[O-])CCC1.[Pt+2] [Carboplatin] | 1.10 ± 0.050 cm | 1.62 ± 0.015 cm | 1.54 ± 0.031 cm | 100 ± 0.00% | – | – | MIC (A. baumannii 17978; A. baumannii 17978 in LB, two-fold dilutions up to […], dash = MIC >[…]): — (If MIC >512 μM, value not listed); MIC (E. coli MG1655; E. coli MG1655 in LB, dash = MIC >[…]): — (If MIC >512 μM, value not listed) |
| O=c1c2ccccc2[se]n1-c1ccccc1 [Ebselen] | 0 cm | 0 cm | 0 cm | 93.4 ± 2.25% | 32 µM (≈ 8.77 µg/mL) | – | MIC (E. coli MG1655; E. coli MG1655 in LB, dash = MIC >[…], read-out: MIC): 128 µM (≈ 35.1 µg/mL) |
| O=C1C(Cl)=C(Cl)C(=O)C(Cl)=C1Cl [P-Chloranil] | 1.14 ± 0.015 cm | 1.57 ± 0.059 cm | 1.51 ± 0.148 cm | – | – | – | MIC (A. baumannii 17978; A. baumannii 17978 in LB, two-fold dilutions up to […], […]): — (If MIC >512 μM, value not listed); differential impact on transport of FeEnt, Fc and ColB, in words (TonB): inhibited ColB but not FeEnt or Fc transport; % Colicin B killing [4]: 93.0 ± 3.36%; MIC (E. coli MG1655; E. coli MG1655 in LB, […]): — (If MIC >512 μM, value not listed) |
| [N-]=[N+]=[N-] [Azide, azide] | – | – | – | – | – | – | 100% Inhibition, Concentration (IC100) [5]: 18 mM; IC50 [5]: 9 mM |
| C[C@@](Cc1ccc(O)c(O)c1)(NN)C(=O)O [Carbidopa] | 1.10 ± 0.015 cm | 1.65 ± 0.055 cm | 1.58 ± 0.089 cm | 96.0 ± 2.0% | > 512 µM | > 512 µM | – |
| N#CC(C#N)=NNc1cccc(Cl)c1 [CCCP, carbonyl cyanide m-chlorophenylhydrazone] | – | – | – | – | – | – | IC50 [5, 13]: 0.005 mM; 100% Inhibition, Concentration (IC100) [5, 14]: 0.01 mM; fluorescence recovery (FeEnt uptake) in words ([6]; 96-well plate, 10 nM FeEnt, CCCP 20 uM, 50 min time course (FIG. 2B)): fully prevented fluorescence recovery; recovered fluorescence in words ([6]; 384-well plate format, increasing concentrations of CCCP (FIG. 3)): dose-responsive decrease in recovered fluorescence |
| O=c1oc2c(O)c(O)cc3c(=O)oc4c(O)c(O)cc1c4c23 [Ellagic acid] | 1.08 ± 0.041 cm | 1.36 ± 0.197 cm | 1.61 ± 0.075 cm | 82.9 ± 3.75% | 256 µM (≈ 77.4 µg/mL) | > 512 µM | growth halo phenotype in siderophore nutrition test, in words [3]: two unique halos; inhibition in the secondary screens (FeEnt utilization, Fc utilization, ColB killing) (TonB; [15]): inhibitory in two of the three secondary assays |
| O=[N+]([O-])c1ccc(O)c([N+](=O)[O-])c1 [DNP, 2,4-dinitrophenol] | – | – | – | – | – | – | IC50 [5, 13]: 0.75 mM; effect on FeEnt binding and transport in words ([5]; FeEnt plus energy poison added to cells (FIG. 1A)): did not affect binding but prevented transport; 100% Inhibition, Concentration (IC100) [5, 14]: 1.5 mM |
| Zinc pyrithione | – | – | – | – | – | – | FeEnt Halo [1]: 0 cm; Fc Halo [2]: 0 cm; MIC (A. baumannii 17978; read-out: MIC): 16 µM; FeEnt Halo [3]: 0 cm; inhibition in the secondary screens (FeEnt utilization, Fc utilization, ColB killing) (TonB): inhibition in all three of the three secondary screens; % Colicin B killing [4]: 20.4 ± 5.90% |
| Cc1cc(N)c2ccccc2[n+]1CCCCCCCCCC[n+]1c(C)cc(N)c2ccccc21 [Dequalinium Chloride] | 1.14 ± 0.017 cm | 1.55 ± 0.131 cm | 1.43 ± 0.110 cm | 98.7 ± 1.10% | > 512 µM | > 512 µM | – |
| COc1cccc(O)c1O [3-Methoxycatechol] | 1.12 ± 0.025 cm | 1.60 ± 0.500 cm | 1.50 ± 0.100 cm | 98.2 ± 2.27% | > 512 µM | > 512 µM | – |
| CC(=O)[O-].CC(=O)[O-].[Cd+2] [Cadmium acetate] | – | – | – | – | – | – | FeEnt Halo [1]: 0 cm; Fc Halo [2]: 2.08 ± 0.42 cm; MIC (A. baumannii 17978; read-out: MIC): 256 µM; FeEnt Halo [3]: 2.22 ± 0.076 cm; inhibition in the secondary screens (FeEnt utilization, Fc utilization, ColB killing) (TonB): inhibitory in two of the three secondary assays; % Colicin B killing [4]: 98.4 ± 0.43% |
| O=c1cc(-c2ccccc2)oc2cc(O)c(O)c(O)c12 [Baicalein] | 1.23 ± 0.098 cm | 1.65 ± 0.045 cm | 1.65 ± 0.050 cm | 54.6 ± 13.2% | > 512 µM | > 512 µM | growth halo phenotype in siderophore nutrition test, in words [3]: two unique halos; inhibition in the secondary screens (FeEnt utilization, Fc utilization, ColB killing) (TonB; [15]): inhibition in all three of the three secondary screens |
| arsenate | – | – | – | – | – | – | 100% Inhibition, Concentration (IC100) [5]: 180 mM; IC50 [5]: 90 mM |
| Thimerosal | – | – | – | – | – | – | FeEnt Halo [1]: 0 cm; Fc Halo [2]: 0 cm; MIC (A. baumannii 17978; read-out: MIC): 1 µM; FeEnt Halo [3]: 0 cm; inhibition in the secondary screens (FeEnt utilization, Fc utilization, ColB killing) (TonB): inhibition in all three of the three secondary screens; % Colicin B killing [4]: 98.6 ± 0.98% |
